The results in this text go back to patent US20230054887A1, “SWEETENING AND TASTE-MASKING COMPOSITIONS, PRODUCTS AND USES THEREOF” (HEALTHTECH BIO ACTIVES, S.L.U., priority 2017, published 2023).

Several values for one entry are separate records, joined by “and”; a condition that tells them apart may be missing. Equal values may be shown once.

Holding throughout (assay type): in vivo
A short description of experiment [1]: Sucrose substitution in orange juice based soft drink, triangular testing by calibrated panel. The text has this:
The purpose of this example was to maximize the sugar substitution in an orange juice based soft drink while maintaining the same overall taste profile. A calibrated panel was not able to distinguish the reference from the different prototypes in triangular testing.
The reference product (Formula 1 of Table 10) contained 10% added sucrose. The maximum sucrose substitution achieved with NHDC was 15% out of the initial 10 by using 10 ppm of NHDC (Formula 2 of Table 10). With the sweetening composition of the present invention, it was possible to increase the sucrose substitution, up to 25% without changing the taste profile of the beverage (Formula 3 of Table 10).
The composition of each beverage is disclosed in Table 10. For the preparation of these beverages, an orange juice concentrate 65° Bx (Dallant) and orange flavor #2N341/C (Dallant) were used. All the percentages in the table are by weight.

Experiment [2] is described as follows: Masking bitterness of quinine, test panel, equibitter solution. The settings on record: 250 ppm quinine. The procedure: The bitter masking effect against quinine was assayed, following an analogous procedure to the one used in Example 10 for paracetamol.
The following substances were assayed: NHDC alone, beta-cyclodextrin alone, a composition comprising NHDC and beta-cyclodextrin in a molar ratio 1:1 (Example F) and a composition comprising NHDC and beta-cyclodextrin in a molar ratio 1:3 (Example G).
Analogously to Example 10, several aqueous solutions were prepared, each containing 250 ppm of quinine and different concentrations of the tested substance, namely, 5, 25, 50, 75 and 100 ppm. For each tested solution, a test panel determined the equibitter quinine solution, and the masking effect was calculated using a formula analogous to formula III (substituting 5000 with […]).
The masking synergies between beta-cyclodextrin and NHDC in Examples F and G were calculated following an analogous procedure to the one disclosed in Example 10. Therefore, using the molecular weight of each component, the amounts of beta-cyclodextrin and NHDC contained in each amount of the combinations of Examples F and G were calculated and, then, the antibittering contribution of each component was calculated on the basis of the data of Table 19. The expected masking effect was calculated as the sum of the contributions of each component, and, finally, the masking synergy was calculated (using Formula IV).

Experiment [3] in a line: Sweetening synergy sensory test: concentration equisweet to sucrose reference solutions in water, expert panel. The settings on record: for Relative sweetening power: ratio sucrose concentration / equisweet concentration; for Equisweet concentration: room temperature. The procedure: A sensory test was performed to assess the sweetening synergism achieved with the composition of the invention (Examples A and B), and this effect was also compared to the effect obtained with analogous compositions containing beta-cyclodextrin (Comparative Examples A and B). Further compositions of the present invention (Examples C, D and E) were also assessed in this sensory test.
A group of expert panellists in sweet descriptors evaluated the sweetness of the different compositions as well as that of the ingredients NHDC, beta-cyclodextrin and gamma-cyclodextrin used alone.
Each evaluated sweetening agent was dissolved in water at different concentrations, at room temperature. The panel then determined, for each product, the concentration that was equisweet to the reference solutions of 1% and 3% sucrose in water. The results are summarized in Table 3 (Examples A and B are abbreviated as Ex. A and Ex. B, respectively, and the Comparative Examples A and B are abbreviated as Comp. A and Comp. B, respectively).
Since beta- and gamma-cyclodextrins are also sweet compounds, the equisweet concentrations of both cyclodextrins were also determined by the test panel to assess their possible contribution to the sweetness of the composition. […] Therefore, as the equisweet concentrations of both cyclodextrins are at least three orders of magnitude larger than those of NHDC, it was concluded that their contribution to the sweetness was negligible.
A more quantitative evaluation of the sweetness synergy provided by the compositions of the present invention was performed by comparing the real measured sweetness of the compositions comprising gamma-cyclodextrin and NHDC with the theoretical sweetness expected from the sum of the individual contribution of each component in the composition.
To this end, the relative sweetening power of each component was first calculated. For comparative purposes, the relative sweetening power of beta-cyclodextrin was also calculated. The relative sweetening power of a given compound, at a given sweetness level, indicates how many times sweeter this compound is than sucrose. It is therefore calculated as the ratio between the concentration of sucrose and the equisweet concentration of each ingredient, for each sweetness level.
From the relative sweetening power of each ingredient, it is possible to calculate the expected sweetness (sucrose equivalence) of a blend of those ingredients, according to Formula I:
Expected sweetness (sucrose equivalence) of a blend C1+C2=Concentration of compound C1×relative sweetening power of compound C1+Concentration of compound C2×relative sweetening power of compound C2
Then, the sweetness synergy of a blend of components can be calculated according to Formula II: […]
As disclosed above in Example 3, the relative sweetening power of a given compound, at a given sweetness level, indicates how many times sweeter than sucrose the compound is, and the value is calculated as the ratio between the concentration of sucrose and the equisweet concentration of the compound.

Experiment [4] can be described thus: Taste profile by calibrated taste panel at concentrations equisweet to 3% sucrose. The settings on record: 0- to 5-point scale. The procedure: The overall taste profile achieved with the sweetening composition of the present invention was evaluated and compared with the target taste profile of sucrose.
For this assay, all samples were evaluated at the same sweetness level, so each sample was used at a concentration which was equisweet to 3% sucrose. For each sample, the following parameters were evaluated: • Time to first sweetness detection • Time to maximum sweetness • Lingering (time for the sweetness to disappear) • Off-flavour: menthol, liquorice (any tastes that are different from sweetness) • Mouthfeel (density, i.e., the perceived viscosity in the mouth)
These evaluations were carried out by a calibrated taste panel, and conducted at room temperature.
Each of those parameters was evaluated on a 0- to 5-point scale. The values for sucrose were the reference, and were considered the target to emulate.

A short description of experiment [5]: Sugar substitution in sweetened dark chocolate, calibrated panel. The text has this: The percentages in the table are expressed by weight.
The reference product (Formula 1 of Table 11) contained a commercial chocolate with 70% cacao content (Lindt®) and 6% of powdered sugar.
Along all the assays performed, the goal was to maximize the sucrose substitution while maintaining the same overall taste profile. A calibrated panel was not able to distinguish the reference from the different prototypes tested.
The method used for preparing the dark chocolate products of this assay was as follows. Firstly, 1% solution of NHDC in glycerol was prepared by gradually adding 1 g of NHDC to 99 g of glycerol, mixing and heating to 60° C. for 15 minutes, until a transparent solution is obtained. The solution was left to cool off to room temperature. The dark chocolate was weighed and heated to 45° C. and, when the chocolate was completely melted, powdered sugar was added and, optionally, also the 1% NHDC glycerol solution or the composition of Example B, and the mixture was then thoroughly mixed. The mixture was heated until reaching 45° C., then it was let to cool to 30° C., and then it was poured into molds (6 g/piece). The molds with the chocolate were put in the fridge for a quicker hardening.

Regarding `COc1ccc(CCC(=O)c2c(O)cc(O[C@@H]3O[C@H](CO)[C@@H](O)[C@H](O)[C@H]3O[C@@H]3O[C@@H](C)[C@H](O)[C@@H](O)[C@H]3O)cc2O)cc1O` [NHDC, 1-[4-[[2-O-(6-Deoxy-α-L-mannopyranosyl)-β-D-glucopyranosyl]oxy]-2,6-dihydroxyphenyl]-3-(3-hydroxy-4-methoxyphenyl)propan-1-one], the “Amount used for the maximum sucrose substitution” value in experiment [1] is recorded as 10 ppm. Also, in experiment [1] (reference with 10% added sucrose), the “Maximum sucrose substitution without changing the taste profile” value is reported as 15%. Moreover, the “Masking effect (real)” value in experiment [2] (tested substance 5 ppm) was determined as 5.00%; in experiment [2] (tested substance 25 ppm), 13.33%; in experiment [2] (tested substance 50 ppm), 30.00%; in experiment [2] (tested substance 75 ppm) it was 48.33%; in experiment [2] (tested substance 100 ppm), 50.00%. Further, the Relative sweetening power in experiment [3] (1% sucrose level) turned out to be 2000; in experiment [3] (3% sucrose level), 1250. The “NHDC amount contained in the equisweet concentration” value in experiment [3] (1% sucrose sweetness level) is recorded as “(5.0) ppm”; in experiment [3] (3% sucrose sweetness level), “(24.0) ppm”. Besides, the Equisweet concentration was 5 ppm and 5.0 ppm in experiment [3] (equisweet to 1% sucrose in water); 24 ppm and 24.0 ppm in experiment [3] (equisweet to 3% sucrose in water). Besides, the Lingering in experiment [4] stood at 4.00. Besides, the “Mouthfeel (density)” value in experiment [4] is on record as 1.75. Further, the “Off-flavour: menthol, licorice” value in experiment [4] came out at 3.25. Moreover, the “Time to first sweetness” value in experiment [4] was found to be 3.75. In addition, in experiment [4], the “Time to maximum sweetness” value was found to be 4.25. In experiment [4], this molecule yielded a Total sweetness of 5.00. Besides, in experiment [5], the “Amount used for the maximum sugar substitution” value is 3 ppm. For the same molecule, the “Maximum sugar substitution without changing the taste profile” value in experiment [5] (reference with 6% powdered sugar) was determined as 10%.
